Counter-ions that a name gives are not always drawn.
Columns and labels:
MgGH51 [1] = molecular target: T1, MgGH51 (Meripilus giganteus, UniProt Z9H0M4BQG1); assay: X-ray crystal structure, […] Å; format: binding; details: type 1 crystal, about one equivalent of inhibitor, 1 h at room temperature; covalent, bound to nucleophile Glu429 (ring-opened cyclic sulfate); PDB code from Tables 3 and 4, the supplementary list pri
T1 construct: mature secreted enzyme, expressed in Aspergillus oryzae, N-glycosylated (Asn145, Asn245, Asn421, Asn487), untagged
T1 sequence (Z9H0M4BQG1 1-627): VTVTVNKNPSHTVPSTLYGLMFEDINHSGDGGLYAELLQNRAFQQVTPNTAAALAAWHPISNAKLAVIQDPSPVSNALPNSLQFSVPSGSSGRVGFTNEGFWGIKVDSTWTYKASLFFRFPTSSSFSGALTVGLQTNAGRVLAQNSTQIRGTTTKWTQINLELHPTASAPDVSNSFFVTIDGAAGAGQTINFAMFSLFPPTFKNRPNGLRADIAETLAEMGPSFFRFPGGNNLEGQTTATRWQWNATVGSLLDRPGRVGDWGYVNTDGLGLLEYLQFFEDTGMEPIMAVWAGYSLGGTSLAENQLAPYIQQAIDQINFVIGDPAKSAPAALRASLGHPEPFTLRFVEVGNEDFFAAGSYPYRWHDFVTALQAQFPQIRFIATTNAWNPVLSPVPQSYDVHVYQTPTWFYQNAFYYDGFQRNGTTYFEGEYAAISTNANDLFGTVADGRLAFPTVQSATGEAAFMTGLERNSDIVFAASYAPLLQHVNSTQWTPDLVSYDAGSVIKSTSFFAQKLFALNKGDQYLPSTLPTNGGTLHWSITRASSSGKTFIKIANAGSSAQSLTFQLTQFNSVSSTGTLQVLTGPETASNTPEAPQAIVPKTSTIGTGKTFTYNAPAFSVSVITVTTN

MgGH51 [2] = molecular target: T1, MgGH51; assay: hydrolysis kinetics, released L-arabinose quantified on CarboPac PA20; format: biochemical; details: 40 °C, 50 mM sodium acetate pH 4, 5 ng/ml enzyme, 0.02-2.5 mM substrate; kind of constant not told in main text
MgGH51 [3] = molecular target: T1, MgGH51; assay: X-ray crystal structure, […] Å; format: binding; details: type 1 crystal, about one equivalent of inhibitor, 1 h at room temperature; covalent, bound to nucleophile Glu429 (ring-opened aziridine)

Which “X-ray crystal structure, 1.71 Å” value (MgGH51 [1]) does the source give for `O=S1(=O)O[C@@H]2[C@@H](CO)[C@H](O)[C@@H](O)[C@@H]2O1` [α-L-AraCS, α-L-arabinocyclophellitol cyclic sulfate] here?
Its value is “α-L-AraCS or α-L-AraAZI gave clear density for these two ligands bound to Glu429”.

`OC[C@@H]1O[C@@H](O[C@@H]2[C@@H](O)[C@H](O[C@@H]3COC(O)[C@H](O)[C@H]3O)OC[C@H]2O)[C@H](O)[C@H]1O` (stereo partly drawn) [AX2, 3^2-α-L-Arabinofuranosyl-xylobiose] was tested. Which “hydrolysis kinetics, released L-arabinose quantified on CarboPac PA20” value (MgGH51 [2]) did it give?
The value was “Measurement of the hydrolytic kinetics of MgGH51 towards the AX2 and A3 oligosaccharides”.

How did the “X-ray crystal structure, 1.54 Å” value (MgGH51 [3]) turn out when `OC[C@H]1[C@H](O)[C@@H](O)[C@@H]2N[C@H]12` [α-L-AraAZI, α-L-arabinocyclophellitol aziridine] was run?
Its value is “α-L-AraCS or α-L-AraAZI gave clear density for these two ligands bound to Glu429”.

For `OC[C@@H]1O[C@@H](OC[C@@H]2O[C@@H](OC[C@@H]3OC(O)[C@H](O)[C@H]3O)[C@H](O)[C@H]2O)[C@H](O)[C@H]1O` (stereo partly drawn) [A3, α(1,5)-linked arabinotriose], which “hydrolysis kinetics, released L-arabinose quantified on CarboPac PA20” value (MgGH51 [2]) is on record?
The value was “Measurement of the hydrolytic kinetics of MgGH51 towards the AX2 and A3 oligosaccharides”.

From article PMC7604909, “Structure of a GH51 α-L-arabinofuranosidase from Meripilus giganteus: conserved substrate recognition from bacteria to fungi” (Acta Crystallographica. Section D, Structural Biology, 2020)
